The values below come from patent US12264134B2 (Merck Sharp & Dohme LLC, priority 2018, dated 2025).

The target in this assay is IDO1 (Homo sapiens, UniProt P14902). Description: IDO1 Cellular Assay in HeLa Cells Stimulated with IFNγ. In kind it is cell-based. To be noted: read-out: HeLa Cell Potency, IC50.
Chain of IDO1 (P14902 whole entry): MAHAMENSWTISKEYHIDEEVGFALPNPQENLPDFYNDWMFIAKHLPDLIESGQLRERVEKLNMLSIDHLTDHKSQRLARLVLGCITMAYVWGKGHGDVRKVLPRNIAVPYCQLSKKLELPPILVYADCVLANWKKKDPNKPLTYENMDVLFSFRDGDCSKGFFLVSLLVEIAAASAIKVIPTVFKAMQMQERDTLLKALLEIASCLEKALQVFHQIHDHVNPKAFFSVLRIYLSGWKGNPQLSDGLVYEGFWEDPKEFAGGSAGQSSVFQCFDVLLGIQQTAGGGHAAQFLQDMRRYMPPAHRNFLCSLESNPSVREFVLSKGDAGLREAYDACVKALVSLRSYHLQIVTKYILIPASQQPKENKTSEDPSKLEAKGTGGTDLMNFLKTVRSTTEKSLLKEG

By IC50 is commonly meant the concentration at which inhibition is half-maximal. With `Cc1c(F)cccc1N1CCN(C(=O)Cn2nc(C(=O)N3C[C@@H](C)O[C@@H](C)C3)c3c2CCC3)CC1` [Example 77, 2-{3-[(2R,6S)-2,6-dimethylmorpholine-4-carbonyl]-5,6-dihydrocyclopenta[c]pyrazol-1(4H)-yl}-1-[4-(3-fluoro-2-methylphenyl)piperazin-1-yl]ethan-1-one], the IC50 is 18.3 nM. As to `Cc1cccc(N2CCN(C(=O)Cn3nc(C(=O)N4CCC(O)(CN5CCCCC5)CC4)c4c3C[C@H]3C[C@@H]43)CC2)c1C` [Example 259, 1-[4-(2,3-dimethylphenyl)piperazin-1-yl]-2-[(3bR,4aR)-3-{4-hydroxy-4-[(piperidin-1-yl)methyl]piperidine-1-carbonyl}-3b,4,4a,5-tetrahydro-1H-cyclopropa[3,4]cyclopenta[1,2-c]pyrazol-1-yl]ethan-1-one], the IC50 turned out to be 9.62 nM. Consider `Cc1cccc(N2CCN(C(=O)Cn3nc(C(=O)N4CCC(OCCO)CC4)c4c3C[C@H]3C[C@@H]43)CC2)c1C` [Example 277, 1-[4-(2,3-dimethylphenyl)piperazin-1-yl]-2-{(3bR,4aR)-3-[4-(2-hydroxyethoxy)piperidine-1-carbonyl]-3b,4,4a,5-tetrahydro-1H-cyclopropa[3,4]cyclopenta[1,2-c]pyrazol-1-yl}ethan-1-one], for which the IC50 is under 0.51 nM.

For the compound `COc1cc(N2CCN(C(=O)Cn3nc(C(=O)N4C[C@@H](C)O[C@@H](C)C4)c4c3CCC4)CC2)ccc1C` [Example 37, 2-{3-[(2R,6S)-2,6-dimethylmorpholine-4-carbonyl]-5,6-dihydrocyclopenta[c]pyrazol-1(4H)-yl}-1-[4-(3-methoxy-4-methylphenyl)piperazin-1-yl]ethan-1-one], the IC50 is 234 nM. For the compound `Cc1cc(C#N)ccc1N1CCN(C(=O)Cn2nc(C(=O)N3C[C@@H](C)O[C@@H](C)C3)c3c2CCC3)CC1` [Example 26, 4-[4-[2-[3-[(2S,6R)-2,6-dimethylmorpholine-4-carbonyl]-5,6-dihydro-4H-cyclopenta[c]pyrazol-1-yl]acetyl]piperazin-1-ium-1-yl]-3-methyl-benzonitrile,2,2,2-trifluoroacetate], the IC50 was 478 nM. With `C[C@@H]1CN(C(=O)c2nn(CC(=O)N3CCN(c4ccc5c(c4)CCCO5)CC3)c3c2CCC3)C[C@H](C)O1` [Example 73, 1-[4-(3,4-dihydro-2H-1-benzopyran-6-yl)piperazin-1-yl]-2-{3-[(2R,6S)-2,6-dimethylmorpholine-4-carbonyl]-5,6-dihydrocyclopenta[c]pyrazol-1(4H)-yl}ethan-1-one], the IC50 is 176 nM. For `Cc1cccc(N2CCN(C(=O)Cn3nc(C(=O)N4CC[C@H](O)[C@H](F)C4)c4c3CC(C(F)F)C4)CC2)c1C` (single isomer, unassigned) [Example 12], the IC50 worked out at 13.2 nM. For the compound `CC(=O)NC1CCN(C(=O)c2nn(CC(=O)N3CCN(c4cccc(C)c4C)CC3)c3c2CCC3)C1` (stereo not shown) [Example 194, N-[1-(1-{2-[4-(2,3-dimethylphenyl)piperazin-1-yl]-2-oxoethyl}-1,4,5,6-tetrahydrocyclopenta[c]pyrazole-3-carbonyl)pyrrolidin-3-yl]acetamide], the IC50 is 40 nM. In the case of `Cc1c(Cl)cccc1N1CCN(C(=O)Cn2nc(C(=O)N3CC[C@H](O)C(C)C3)c3c2C[C@H]2C[C@@H]32)CC1` (stereo in doubt) [Example 351, 1-(4-(3-chloro-2-methylphenyl)piperazin-1-yl)-2-((3bR,4aR)-3-((3S,4S)-4-hydroxy-3-methylpiperidine-1-carbonyl)-3b,4,4a,5-tetrahydro-1H-cyclopropa[3,4]cyclopenta[1,2-c]pyrazol-1-yl)ethanone], the IC50 was determined as 1.26 nM. As for `Cc1cccc(N2CCN(C(=O)Cn3nc(C(=O)N4CCC(NC(=O)C5CC5)CC4)c4c3C[C@H]3C[C@@H]43)CC2)c1C` [Example 257, N-{1-[(3bR,4aR)-1-{2-[4-(2,3-dimethylphenyl)piperazin-1-yl]-2-oxoethyl}-3b,4,4a,5-tetrahydro-1H-cyclopropa[3,4]cyclopenta[1,2-c]pyrazole-3-carbonyl]piperidin-4-yl}cyclopropanecarboxamide], the concentration for half-maximal inhibition (IC50) came out at 1.05 nM. The figure for `Cc1cccc(N2CCN(C(=O)Cn3nc(C(=O)N4CCN5CCCC[C@@H]5C4)c4c3C[C@H]3C[C@@H]43)CC2)c1C` [Example 246, 1-[4-(2,3-dimethylphenyl)piperazin-1-yl]-2-{(3bR,4aR)-3-[(9aR)-octahydro-2H-pyrido[1,2-a]pyrazine-2-carbonyl]-3b,4,4a,5-tetrahydro-1H-cyclopropa[3,4]cyclopenta[1,2-c]pyrazol-1-yl}ethan-1-one] is 3.27 nM; for `Cc1c(Cl)cccc1N1CCN(C(=O)Cn2nc(C(=O)N3CC[C@@H](O)[C@@H](F)C3)c3c2CCC(F)C3)CC1` (stereo partly drawn) [Example 375, 1-(4-(3-chloro-2-methylphenyl)piperazin-1-yl)-2-(5-fluoro-3-((3S,4R)-3-fluoro-4-hydroxypiperidine-1-carbonyl)-4,5,6,7-tetrahydro-1H-indazol-1-yl)ethan-1-one] it is 9.03 nM. As for `Cc1cccc(N2CCN(C(=O)Cn3nc(C(=O)N4C5CCC4CC(O)C5)c4c3CCC4)CC2)c1C` (stereo not shown) [Example 150, 1-[4-(2,3-dimethylphenyl)piperazin-1-yl]-2-[3-(3-hydroxy-8-azabicyclo[3.2.1]octane-8-carbonyl)-5,6-dihydrocyclopenta[c]pyrazol-1(4H)-yl]ethan-1-one], the IC50 was 18.5 nM. Regarding `C[C@@H]1CN(C(=O)c2nn(CC(=O)N3CCN(c4cc(F)ccc4F)CC3)c3c2CCC3)C[C@H](C)O1` [Example 76, 1-[4-(2,5-difluorophenyl)piperazin-1-yl]-2-{3-[(2R,6S)-2,6-dimethylmorpholine-4-carbonyl]-5,6-dihydrocyclopenta[c]pyrazol-1(4H)-yl}ethan-1-one], the IC50 came to 439 nM.

In the case of `Cc1cc(N2CCN(C(=O)Cn3nc(C(=O)N4C[C@@H](C)O[C@@H](C)C4)c4c3CCC4)CC2)ccc1F` [Example 53], the IC50 came to 76.9 nM. Regarding `Cc1c(C#N)cccc1N1CCN(C(=O)Cn2nc(C(=O)N3C[C@@H](C)O[C@@H](C)C3)c3c2CCC3)CC1` [Example 33, 3-[4-({3-[(2R,6S)-2,6-dimethylmorpholine-4-carbonyl]-5,6-dihydrocyclopenta[c]pyrazol-1(4H)-yl}acetyl)piperazin-1-yl]-2-methylbenzonitrile], the IC50 was found to be 65 nM.

As to `CC(=O)NC1CCN(C(=O)c2nn(CC(=O)N3CCN(c4cccc(Cl)c4C)CC3)c3c2CC(F)CC3)CC1` (stereo not shown) [Example 377, N-(1-(1-(2-(4-(3-chloro-2-methylphenyl)piperazin-1-yl)-2-oxoethyl)-5-fluoro-4,5,6,7-tetrahydro-1H-indazol-3-carbonyl)piperidin-4-yl)acetamide], the IC50 came out at 3.15 nM.

In the case of `Cc1cccc(N2CCN(C(=O)Cn3nc(C(=O)N4CC[C@@H](O)[C@@H](F)C4)c4c3C(O)CC4)CC2)c1C` (single isomer, unassigned) [Example 422], the IC50 turned out to be 2950 nM. For `Cc1cccc(N2CCN(C(=O)Cn3nc(C(=O)N4CCC(C)(N)CC4)c4c3CCC4)CC2)c1C` [Example 176, 2-[3-(4-amino-4-methylpiperidine-1-carbonyl)-5,6-dihydrocyclopenta[c]pyrazol-1(4H)-yl]-1-[4-(2,3-dimethylphenyl)piperazin-1-yl]ethan-1-one], the IC50 worked out at 476 nM.
